From patent publication US20240343732A1, “COMPOUNDS FOR DEGRADATION OF CYCLIN-DEPENDENT KINASE 7(CDK7)” (QURIENT CO., LTD., priority 2021, published 2024) come the findings set out here.

Experiment [1] concerns the target T1, CDK1 (Homo sapiens, UniProt P06493).
T1 construct: His; purchased Invitrogen PR4768C
In words: Binding assay (FRET, LanthaScreen Eu, Tracer236) for CDK1. The following applies: for IC50: read-out: CDK1 IC50 (enzyme binding assay). On the procedure: (§1) Inhibition activity of compound to CDK7 kinase was tested in a binding assay which was applied to the FRET (fluorescence resonance energy transfer) principle from the europium (Eu) donor fluorophore to the acceptor fluorophore on the kinase tracer. Test compounds were made to 1.125 mM of compound solution, and then this compound solution 4-fold serial diluted in 8 steps using an automated liquid handler (JANUS™, PerkinElmer). 80 nL/well of each diluted compound solution was added into the 384-well plate (Greiner, Cat #784075) first and 7.5 ul/well of working solution [5 nM of CDK7/CycH/MNAT1 (Invitrogen, Cat #PR6749B), 4 nM of Biotin anti-His Tag Antibody (Invitrogen, Cat #PV6090), and LanthaScreen® Eu-Streptavidin (Invitrogen, Cat #PV6025)] was added. After mixing the solution well, the same volume with the working solution of Tracer236 (Invitrogen, Cat #PV5592) was added into each well in the plate. The plate was incubated for 60 minutes at room temperature and then all the fluorescence were measured using Envision leader (Perkin Elmer, USA) [Laser as excitation light; […] as the first and the second emission filter]. Data was analysed using XL Fit software.
(§2) All of the synthesized compounds were screened in the above-mentioned assay procedure. To identify the inhibition activity of compounds for other CDKs including CDK1 (Invitrogen, Cat #PR4768C), CDK2 (Invitrogen, Cat #PR4448B) and CDK5 (Invitrogen, Cat #PR8543B) were tested using the same protocol under reasonable concentration of Tracer236 and kinases for each assay. The formula for the assay buffer summarized in below table.
On the technique in general: In TR-FRET formats the signal depends on donor and acceptor labels being close together.

In experiment [2] the target is T2, CDK2 (Homo sapiens, UniProt P24941).
T2 construct: His; purchased Invitrogen PR4448B
Kind of experiment: Binding assay (FRET, LanthaScreen Eu, Tracer236) for CDK2. The note with it: for IC50: read-out: CDK2 IC50 (enzyme binding assay). On the procedure: as §1, §2

In experiment [3] the target is T3, CDK5 (Homo sapiens, UniProt Q00535).
T3 construct: His; purchased Invitrogen PR8543B
In words: Binding assay (FRET, LanthaScreen Eu, Tracer236) for CDK5. The following applies: for IC50: read-out: CDK5 IC50 (enzyme binding assay). The protocol: as §1, §2

For experiment [4], the target named is T4, CDK7/CycH/MNAT1 (Homo sapiens, UniProt P50613).
T4 construct: His; purchased Invitrogen PR6749B
Kind of experiment: Binding assay (FRET, LanthaScreen Eu, Tracer236) for CDK7. The following applies: read-out: CDK7 IC50 (enzyme binding assay). On the procedure: as §1, §2

SMILES strings stand for the structures.

T4 sequence (P50613 whole entry): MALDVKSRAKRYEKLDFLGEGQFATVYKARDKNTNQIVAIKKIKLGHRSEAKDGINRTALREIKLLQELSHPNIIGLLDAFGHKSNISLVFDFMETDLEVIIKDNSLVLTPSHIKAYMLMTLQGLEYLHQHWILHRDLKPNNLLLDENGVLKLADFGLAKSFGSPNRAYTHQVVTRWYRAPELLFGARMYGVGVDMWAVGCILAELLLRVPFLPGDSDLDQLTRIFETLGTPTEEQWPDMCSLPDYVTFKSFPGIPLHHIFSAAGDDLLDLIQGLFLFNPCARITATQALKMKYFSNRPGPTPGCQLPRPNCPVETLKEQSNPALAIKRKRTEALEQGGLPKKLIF
T4 sequence (P51946 whole entry partner): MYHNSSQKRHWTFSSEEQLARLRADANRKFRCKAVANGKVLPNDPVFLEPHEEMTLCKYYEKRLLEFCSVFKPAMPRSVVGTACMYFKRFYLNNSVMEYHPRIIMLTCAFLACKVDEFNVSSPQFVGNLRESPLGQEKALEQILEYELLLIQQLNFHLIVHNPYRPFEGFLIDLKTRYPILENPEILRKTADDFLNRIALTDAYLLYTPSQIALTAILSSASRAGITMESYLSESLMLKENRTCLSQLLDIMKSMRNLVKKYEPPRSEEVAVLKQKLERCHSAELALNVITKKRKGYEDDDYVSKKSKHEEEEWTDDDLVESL
T4 sequence (P51948 whole entry partner): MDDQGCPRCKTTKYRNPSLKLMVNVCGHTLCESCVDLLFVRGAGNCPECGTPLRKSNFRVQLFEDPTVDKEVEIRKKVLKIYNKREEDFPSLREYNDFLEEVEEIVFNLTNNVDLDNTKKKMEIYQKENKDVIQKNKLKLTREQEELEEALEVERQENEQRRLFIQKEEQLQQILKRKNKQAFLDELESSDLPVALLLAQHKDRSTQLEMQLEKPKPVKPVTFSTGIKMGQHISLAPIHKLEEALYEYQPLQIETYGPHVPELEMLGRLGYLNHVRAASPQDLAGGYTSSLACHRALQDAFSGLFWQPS
T1 sequence (P06493 whole entry): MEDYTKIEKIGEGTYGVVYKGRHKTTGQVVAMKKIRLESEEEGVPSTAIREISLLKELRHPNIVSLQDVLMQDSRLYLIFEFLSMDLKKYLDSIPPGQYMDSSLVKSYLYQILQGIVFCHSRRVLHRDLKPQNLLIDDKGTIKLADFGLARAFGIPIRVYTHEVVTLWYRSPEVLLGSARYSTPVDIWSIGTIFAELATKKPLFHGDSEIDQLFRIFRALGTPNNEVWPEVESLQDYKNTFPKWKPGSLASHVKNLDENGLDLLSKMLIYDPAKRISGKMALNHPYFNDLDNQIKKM
T1 sequence (P14635 whole entry partner): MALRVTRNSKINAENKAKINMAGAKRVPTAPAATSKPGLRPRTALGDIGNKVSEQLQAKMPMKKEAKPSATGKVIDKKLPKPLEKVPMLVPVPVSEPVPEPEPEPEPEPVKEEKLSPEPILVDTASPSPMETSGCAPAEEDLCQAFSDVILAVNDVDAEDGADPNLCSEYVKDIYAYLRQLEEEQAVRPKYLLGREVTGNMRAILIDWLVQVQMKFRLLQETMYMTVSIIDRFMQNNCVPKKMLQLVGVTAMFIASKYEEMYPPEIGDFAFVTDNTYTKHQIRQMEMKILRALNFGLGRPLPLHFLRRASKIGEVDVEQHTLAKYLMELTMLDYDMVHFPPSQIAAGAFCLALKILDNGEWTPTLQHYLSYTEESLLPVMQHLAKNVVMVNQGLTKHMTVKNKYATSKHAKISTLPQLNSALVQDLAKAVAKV
T3 sequence (Q00535 whole entry): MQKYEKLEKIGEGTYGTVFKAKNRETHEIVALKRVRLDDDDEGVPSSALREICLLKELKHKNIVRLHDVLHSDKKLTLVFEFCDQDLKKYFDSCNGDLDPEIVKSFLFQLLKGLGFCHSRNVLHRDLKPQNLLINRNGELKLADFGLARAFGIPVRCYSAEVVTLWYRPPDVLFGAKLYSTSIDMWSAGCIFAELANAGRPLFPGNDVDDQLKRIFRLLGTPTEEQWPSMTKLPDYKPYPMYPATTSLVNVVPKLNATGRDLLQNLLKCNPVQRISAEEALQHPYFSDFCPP
T3 sequence (Q15078 99-307 partner limits assumed): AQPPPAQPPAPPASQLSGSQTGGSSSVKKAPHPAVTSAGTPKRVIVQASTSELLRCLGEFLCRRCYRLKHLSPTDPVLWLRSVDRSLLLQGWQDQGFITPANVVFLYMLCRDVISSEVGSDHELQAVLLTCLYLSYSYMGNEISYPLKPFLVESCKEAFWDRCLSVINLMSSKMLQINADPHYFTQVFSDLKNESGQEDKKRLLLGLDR

The term IC50 denotes the point on the concentration scale where inhibition reaches its midpoint. As to `CC(C)c1cnn2c(NCc3ccccc3-c3nccc4cc(NC(=O)/C=C/CN(C)CCOCCOCCNC(=O)CNc5cccc6c5C(=O)N(C5CCC(=O)NC5=O)C6=O)ccc34)nc(N3CCC(N)CC3)nc12` (stereo not drawn) [Compound 2], in experiment [1], the “CDK1/CDK7: Selectivity of CDK7 inhibition over CDK1 inhibition” value was “A (A indicates [fold] > 500)” and the concentration for half-maximal inhibition (IC50) was above 1 µM. Besides, in experiment [2], the “CDK2/CDK7: Selectivity of CDK7 inhibition over CDK2 inhibition” value is “A (A indicates [fold] > 500)” and the half-maximal inhibitory concentration (IC50) is above 1 µM. In experiment [3], the “CDK5/CDK7: Selectivity of CDK7 inhibition over CDK5 inhibition” value is “A (A indicates [fold] > 500)” and the IC50 was above 1 µM. Further, the IC50 in experiment [4] is at most 0.1 µM.

For the compound `CC(C)c1cnn2c(NCc3ccccc3-c3nccc4cc(N5CCC(CN6CCN(c7cc8c(cc7F)C(=O)N(C7CCC(=O)NC7=O)C8=O)CC6)CC5)ccc34)nc(O[C@@H]3CCCNC3)nc12` (stereo partly drawn) [Compound 36], in experiment [1], the “CDK1/CDK7: Selectivity of CDK7 inhibition over CDK1 inhibition” value was “B (B indicates 50 < [fold] ≤ 500)”. In addition, the IC50 was above 1 µM in experiment [1], above 1 µM in experiment [2], above 1 µM in experiment [3] and at most 0.1 µM in experiment [4]. In experiment [2], the “CDK2/CDK7: Selectivity of CDK7 inhibition over CDK2 inhibition” value is “B (B indicates 50 < [fold] ≤ 500)”. Further, the “CDK5/CDK7: Selectivity of CDK7 inhibition over CDK5 inhibition” value in experiment [3] is “B (B indicates 50 < [fold] ≤ 500)”.

Consider `Cc1ncsc1-c1ccc(CNC(=O)[C@@H]2C[C@@H](O)CN2C(=O)[C@@H](NC(=O)C2(F)CC2)C(C)(C)C)c(OCCOCCOCCOCCOCCOCCNc2ccc3c(-c4ccccc4CNc4nc(O[C@@H]5CCCNC5)nc5c(C(C)C)cnn45)nccc3c2)c1` [Compound 23], for which, in experiment [1], the “CDK1/CDK7: Selectivity of CDK7 inhibition over CDK1 inhibition” value is “A (A indicates [fold] > 500)” and the IC50 was above 1 µM. In experiment [2], the “CDK2/CDK7: Selectivity of CDK7 inhibition over CDK2 inhibition” value is “A (A indicates [fold] > 500)” and the IC50 was above 1 µM. Moreover, in experiment [3], the “CDK5/CDK7: Selectivity of CDK7 inhibition over CDK5 inhibition” value is “A (A indicates [fold] > 500)” and the half-maximal inhibitory concentration (IC50) was above 1 µM. Further, the 50% inhibitory concentration (IC50) in experiment [4] was at most 0.1 µM.

`CC(C)c1cnn2c(NCc3ccccc3-c3nccc4cc(N)ccc34)nc(O[C@@H]3CCCN(CCOCCOCCOCCNC(=O)CNc4cccc5c4C(=O)N(C4CCC(=O)NC4=O)C5=O)C3)nc12` (stereo partly drawn) [Compound 6]: in experiment [1], the “CDK1/CDK7: Selectivity of CDK7 inhibition over CDK1 inhibition” value is “A (A indicates [fold] > 500)”. The half-maximal inhibitory concentration (IC50) was above 1 µM in experiment [1], above 1 µM in experiment [2], above 1 µM in experiment [3] and at most 0.1 µM in experiment [4]. For the same compound, the “CDK2/CDK7: Selectivity of CDK7 inhibition over CDK2 inhibition” value in experiment [2] was “A (A indicates [fold] > 500)”. Besides, the “CDK5/CDK7: Selectivity of CDK7 inhibition over CDK5 inhibition” value in experiment [3] was “A (A indicates [fold] > 500)”.

For `C=C(F)C(=O)Nc1ccc2c(-c3ccccc3CNc3nc(NC[C@H]4CCN(CCOCCOCCNC(=O)CNc5cccc6c5C(=O)N(C5CCC(=O)NC5=O)C6=O)C[C@@H]4O)nc4c(C(C)C)cnn34)nccc2c1` (stereo partly drawn) [Compound 4], in experiment [1], the “CDK1/CDK7: Selectivity of CDK7 inhibition over CDK1 inhibition” value is “A (A indicates [fold] > 500)” and the concentration for half-maximal inhibition (IC50) is above 1 µM. In experiment [2], the “CDK2/CDK7: Selectivity of CDK7 inhibition over CDK2 inhibition” value was “C (C indicates [fold] ≤ 50)” and the half-maximal inhibitory concentration (IC50) was above 1 µM. Moreover, in experiment [3], the “CDK5/CDK7: Selectivity of CDK7 inhibition over CDK5 inhibition” value was “B (B indicates 50 < [fold] ≤ 500)” and the IC50 is above 1 µM. Besides, in experiment [4], the half-inhibitory concentration (IC50) fell in the range of 0.1 to 1 µM.

In the case of `CC(C)c1cnn2c(NCc3ccccc3-c3nccc4cc(NC(=O)/C=C/CN(C)CCOCCOCCOCCNC(=O)CNc5cccc6c5C(=O)N(C5CCC(=O)NC5=O)C6=O)ccc34)nc(N3CCC(N)CC3)nc12` (stereo not drawn) [Compound 3], in experiment [1], the “CDK1/CDK7: Selectivity of CDK7 inhibition over CDK1 inhibition” value is “A (A indicates [fold] > 500)” and the IC50 was above 1 µM. Further, in experiment [2], the “CDK2/CDK7: Selectivity of CDK7 inhibition over CDK2 inhibition” value was “A (A indicates [fold] > 500)” and the half-inhibitory concentration (IC50) was above 1 µM. For the same compound, in experiment [3], the “CDK5/CDK7: Selectivity of CDK7 inhibition over CDK5 inhibition” value is “A (A indicates [fold] > 500)” and the 50% inhibitory concentration (IC50) was above 1 µM. Further, in experiment [4], the IC50 is at most 0.1 µM.

Regarding `CC(C)c1cnn2c(NCc3ccccc3-c3nccc4cc(N5CCN(CC6CCN(c7cc8c(cc7F)C(=O)N(C7CCC(=O)NC7=O)C8=O)CC6)CC5)ccc34)nc(O[C@@H]3CCCNC3)nc12` (stereo partly drawn) [Compound 35], in experiment [1], the “CDK1/CDK7: Selectivity of CDK7 inhibition over CDK1 inhibition” value was “B (B indicates 50 < [fold] ≤ 500)” and the half-inhibitory concentration (IC50) was above 1 µM. In experiment [2], the “CDK2/CDK7: Selectivity of CDK7 inhibition over CDK2 inhibition” value is “B (B indicates 50 < [fold] ≤ 500)” and the IC50 was above 1 µM. In experiment [3], the “CDK5/CDK7: Selectivity of CDK7 inhibition over CDK5 inhibition” value is “B (B indicates 50 < [fold] ≤ 500)” and the IC50 is above 1 µM. In addition, the IC50 in experiment [4] lay in the range of 0.1 to 1 µM.

On to `CC(C)c1cnn2c(NCc3ccccc3-c3nccc4cc(N)ccc34)nc(O[C@@H]3CCCN(CCOCCOCCNC(=O)CNc4cccc5c4C(=O)N(C4CCC(=O)NC4=O)C5=O)C3)nc12` (stereo partly drawn) [Compound 5], for which, in experiment [1], the “CDK1/CDK7: Selectivity of CDK7 inhibition over CDK1 inhibition” value is “A (A indicates [fold] > 500)” and the IC50 is above 1 µM. Further, in experiment [2], the “CDK2/CDK7: Selectivity of CDK7 inhibition over CDK2 inhibition” value was “A (A indicates [fold] > 500)” and the IC50 is above 1 µM. In experiment [3], the “CDK5/CDK7: Selectivity of CDK7 inhibition over CDK5 inhibition” value was “A (A indicates [fold] > 500)” and the IC50 is above 1 µM. Also, the 50% inhibitory concentration (IC50) in experiment [4] was at most 0.1 µM.

Regarding `Cc1ncsc1-c1ccc(CNC(=O)[C@@H]2C[C@@H](O)CN2C(=O)[C@@H](NC(=O)C2(F)CC2)C(C)(C)C)c(OCCN2CCC(N3CCC(CNc4ccc5c(-c6ccccc6CNc6nc(N[C@@H]7CCCNC7)nc7c(C(C)C)cnn67)nccc5c4)CC3)CC2)c1` [Compound 29], in experiment [1], the “CDK1/CDK7: Selectivity of CDK7 inhibition over CDK1 inhibition” value was “B (B indicates 50 < [fold] ≤ 500)” and the half-maximal inhibitory concentration (IC50) is above 1 µM. Besides, in experiment [2], the “CDK2/CDK7: Selectivity of CDK7 inhibition over CDK2 inhibition” value is “B (B indicates 50 < [fold] ≤ 500)” and the IC50 was above 1 µM. Besides, in experiment [3], the “CDK5/CDK7: Selectivity of CDK7 inhibition over CDK5 inhibition” value is “B (B indicates 50 < [fold] ≤ 500)” and the half-maximal inhibitory concentration (IC50) was above 1 µM. Further, the IC50 in experiment [4] was at most 0.1 µM.

For `CC(C)c1cnn2c(NCc3ccccc3-c3nccc4cc(NC(=O)/C=C/CN(C)CCOCCNC(=O)CNc5cccc6c5C(=O)N(C5CCC(=O)NC5=O)C6=O)ccc34)nc(N3CCC(N)CC3)nc12` (stereo not drawn) [Compound 1], in experiment [1], the “CDK1/CDK7: Selectivity of CDK7 inhibition over CDK1 inhibition” value is “A (A indicates [fold] > 500)” and the IC50 is above 1 µM. Moreover, in experiment [2], the “CDK2/CDK7: Selectivity of CDK7 inhibition over CDK2 inhibition” value is “A (A indicates [fold] > 500)” and the concentration for half-maximal inhibition (IC50) was above 1 µM. In experiment [3], the “CDK5/CDK7: Selectivity of CDK7 inhibition over CDK5 inhibition” value is “A (A indicates [fold] > 500)” and the half-maximal inhibitory concentration (IC50) was above 1 µM. Besides, in experiment [4], the IC50 is at most 0.1 µM.

With `CN[C@@H](C)C(=O)N[C@H](C(=O)N1CCC[C@H]1c1nc(C(=O)c2cccc(OCCOCCOCCNc3ccc4c(-c5ccccc5CNc5nc(O[C@@H]6CCCNC6)nc6c(C(C)C)cnn56)nccc4c3)c2)cs1)C1CCCCC1` [Compound 18], in experiment [1], the “CDK1/CDK7: Selectivity of CDK7 inhibition over CDK1 inhibition” value was “A (A indicates [fold] > 500)” and the IC50 was above 1 µM. In experiment [2], the “CDK2/CDK7: Selectivity of CDK7 inhibition over CDK2 inhibition” value was “A (A indicates [fold] > 500)” and the IC50 is above 1 µM. Moreover, in experiment [3], the “CDK5/CDK7: Selectivity of CDK7 inhibition over CDK5 inhibition” value is “A (A indicates [fold] > 500)” and the IC50 was above 1 µM. Further, the IC50 in experiment [4] was at most 0.1 µM.

On to `CC(C)c1cnn2c(NCc3ccccc3-c3nccc4cc(NCCOCCOCCOCCNC(=O)CNc5cccc6c5C(=O)N(C5CCC(=O)NC5=O)C6=O)ccc34)nc(O[C@@H]3CCCNC3)nc12` (stereo partly drawn) [Compound 8], for which, in experiment [1], the “CDK1/CDK7: Selectivity of CDK7 inhibition over CDK1 inhibition” value is “A (A indicates [fold] > 500)” and the IC50 was above 1 µM. In experiment [2], the “CDK2/CDK7: Selectivity of CDK7 inhibition over CDK2 inhibition” value is “A (A indicates [fold] > 500)” and the half-maximal inhibitory concentration (IC50) is above 1 µM. In addition, in experiment [3], the “CDK5/CDK7: Selectivity of CDK7 inhibition over CDK5 inhibition” value is “B (B indicates 50 < [fold] ≤ 500)” and the IC50 is above 1 µM. For the same compound, in experiment [4], the 50% inhibitory concentration (IC50) is at most 0.1 µM.
